Test results taken from the supplement of paper PMC10733146.

Tests used:
Experiment in all cases: viability relative to DMSO control (fraction); higher = less drug effect (more viable cells)
Settings in all cases: 48 h
[1] = tested on: primary AML patient cells (S089)
Outline: (§1)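 Viability was measured as CellTiter-Glo luminescence relative to the median of 16 inner DMSO wells. Primary mononuclear tumour cells, fresh or cryopreserved, were Ficoll-isolated from blood or bone marrow or taken from processed lymph node. They were seeded at 4 × 10^4 cells per well into 384-well plates holding pre-plated compounds at five concentrations, one well each, and kept in RPMI-1640 with penicillin/streptomycin, L-glutamine and human serum at 37 °C and 5% CO2 for 48 h.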

[2] = tested on: primary MCL patient cells (S068)
Outline: as §1

[3] = tested on: primary AML patient cells (S017)
Outline: as §1

[4] = tested on: primary AML patient cells (S085)
Outline: as §1

[5] = tested on: primary AML patient cells (S091)
Outline: as §1

[6] = tested on: primary AML patient cells (S019)
Outline: as §1

[7] = tested on: primary CLL patient cells (S031)
Outline: as §1

[8] = tested on: primary BL patient cells (S005)
Outline: as §1

[9] = tested on: primary MCL patient cells (S053)
Outline: as §1

[10] = tested on: primary AML patient cells (S037)
Outline: as §1

[11] = tested on: primary AML patient cells (S079)
Outline: as §1

[12] = tested on: primary AML patient cells (S025)
Outline: as §1

[13] = tested on: primary AML patient cells (S012)
Outline: as §1

[14] = tested on: primary AML patient cells (S002)
Outline: as §1

[15] = tested on: primary AML patient cells (S072)
Outline: as §1

[16] = tested on: primary AML patient cells (S056)
Outline: as §1

[17] = tested on: primary FL patient cells (S022)
Outline: as §1

[18] = tested on: primary ALL patient cells (S048)
Outline: as §1

[19] = tested on: primary AML patient cells (S071)
Outline: as §1

[20] = tested on: primary CLL patient cells (S043)
Outline: as §1

SMILES: COc1cccc2c1C(=O)c1c(O)c3c(c(O)c1C2=O)C[C@@](O)(C(=O)CO)C[C@@H]3O[C@H]1C[C@H](N)[C@H](O)[C@H](C)O1 [Doxorubicin]
- viability ([1]; 0.0016 µM): 1.01
- viability ([1]; 0.008 µM): 1
- viability ([1]; 0.04 µM): 1.01
- viability ([1]; 0.2 µM): 0.665
- viability ([1]; 1 µM): 0.187
- viability ([2]; 0.0016 µM): 0.995
- viability ([2]; 0.008 µM): 0.978
- viability ([2]; 0.04 µM): 0.761
- viability ([2]; 0.2 µM): 0.307
- viability ([2]; 1 µM): 0.0522
- viability ([3]; 0.0016 µM): 1.2
- viability ([3]; 0.008 µM): 1.1
- viability ([3]; 0.04 µM): 1.07
- viability ([3]; 0.2 µM): 0.96
- viability ([3]; 1 µM): 0.146
- viability ([4]; 0.0016 µM): 0.94
- viability ([4]; 0.008 µM): 1.09
- viability ([4]; 0.04 µM): 0.834
- viability ([4]; 0.2 µM): 0.278
- viability ([4]; 1 µM): 0.0284
- viability ([5]; 0.0016 µM): 0.983
- viability ([5]; 0.008 µM): 0.905
- viability ([5]; 0.04 µM): 0.737
- viability ([5]; 0.2 µM): 0.637
- viability ([5]; 1 µM): 0.499
- viability ([6]; 0.0016 µM): 1.02
- viability ([6]; 0.008 µM): 1.06
- viability ([6]; 0.04 µM): 0.828
- viability ([6]; 0.2 µM): 0.481
- viability ([6]; 1 µM): 0.219
- viability ([7]; 0.0016 µM): 1.14
- viability ([7]; 0.008 µM): 1.02
- viability ([7]; 0.04 µM): 0.534
- viability ([7]; 0.2 µM): 0.0601
- viability ([7]; 1 µM): 0.0158
- viability ([8]; 0.0016 µM): 1.03
- viability ([8]; 0.008 µM): 1.03
- viability ([8]; 0.04 µM): 0.968
- viability ([8]; 0.2 µM): 0.875
- viability ([8]; 1 µM): 0.838
- viability ([9]; 0.0016 µM): 0.959
- viability ([9]; 0.008 µM): 0.756
- viability ([9]; 0.04 µM): 0.448
- viability ([9]; 0.2 µM): 0.216
- viability ([9]; 1 µM): 0.299
- viability ([10]; 0.0016 µM): 1.06
- viability ([10]; 0.008 µM): 1.05
- viability ([10]; 0.04 µM): 0.979
- viability ([10]; 0.2 µM): 0.737
- viability ([10]; 1 µM): 0.447
- viability ([11]; 0.0016 µM): 1.05
- viability ([11]; 0.008 µM): 1.1
- viability ([11]; 0.04 µM): 1.03
- viability ([11]; 0.2 µM): 0.769
- viability ([11]; 1 µM): 0.244
- viability ([12]; 0.0016 µM): 0.99
- viability ([12]; 0.008 µM): 1.01
- viability ([12]; 0.04 µM): 0.848
- viability ([12]; 0.2 µM): 0.501
- viability ([12]; 1 µM): 0.119
- viability ([13]; 0.0016 µM): 1.04
- viability ([13]; 0.008 µM): 1.04
- viability ([13]; 0.04 µM): 0.88
- viability ([13]; 0.2 µM): 0.896
- viability ([13]; 1 µM): 0.0673
- viability ([14]; 0.0016 µM): 1.06
- viability ([14]; 0.008 µM): 1.08
- viability ([14]; 0.04 µM): 0.695
- viability ([14]; 0.2 µM): 0.401
- viability ([14]; 1 µM): 0.33
- viability ([15]; 0.0016 µM): 1.05
- viability ([15]; 0.008 µM): 1.01
- viability ([15]; 0.04 µM): 0.947
- viability ([15]; 0.2 µM): 0.704
- viability ([15]; 1 µM): 0.162
- viability ([16]; 0.0016 µM): 1.02
- viability ([16]; 0.008 µM): 0.889
- viability ([16]; 0.04 µM): 0.812
- viability ([16]; 0.2 µM): 0.584
- viability ([16]; 1 µM): 0.0807
- viability ([17]; 0.0016 µM): 1.12
- viability ([17]; 0.008 µM): 1.17
- viability ([17]; 0.04 µM): 0.892
- viability ([17]; 0.2 µM): 0.281
- viability ([17]; 1 µM): 0.183
- viability ([18]; 0.0016 µM): 1.06
- viability ([18]; 0.008 µM): 1.01
- viability ([18]; 0.04 µM): 0.418
- viability ([18]; 0.2 µM): 0.0592
- viability ([18]; 1 µM): 0.0152
- viability ([19]; 0.0016 µM): 0.978
- viability ([19]; 0.008 µM): 0.745
- viability ([19]; 0.04 µM): 0.27
- viability ([19]; 0.2 µM): 0.116
- viability ([19]; 1 µM): 0.0761
- viability ([20]; 0.0016 µM): 1.03
- viability ([20]; 0.008 µM): 0.956
- viability ([20]; 0.04 µM): 0.97
- viability ([20]; 0.2 µM): 0.615
- viability ([20]; 1 µM): 0.0447
